In article PMC6107127, “Characteristics of the mitochondrial and cellular uptake of MPP^+, as probed by the fluorescent mimic, 4'I-MPP^+” (PLoS ONE, 2018):

Columns and labels:
[1] = tested on: isolated intact MN9D mitochondria; test: Effects of Ca2+ and inhibitors on MN9D mitochondrial uptake of 4'I-MPP+; design: species or system mouse; settings: for 4'I-MPP+ uptake inhibition: 200 μM 4'I-MPP+
Description: Intact MN9D cell mitochondria were incubated with 200 μM 4'I-MPP^+ for 45 min at 37 °C in 0, 500 or 1000 nM Ca^2+ containing KCl buffer. When mNCX inhibitors (KBR7943, 2APB and CGP37157) were used, mitochondrial suspensions were initially incubated with 10, 25 or 50 μM inhibitor in KCl buffer for 10 min at 37 °C and then with 200 μM 4'I- MPP^+ for 45 min at 37 °C. After the incubations, samples were centrifuged at 7,000 x g at 4 °C for 10 min and the mitochondrial pellets were treated with 75 μL of 0.1 M HClO4. […] To visualize the effect of CGP37157 on the mitochondrial uptake of 4'I-MPP^+ in live cells, HepG2 cells grown in glass-bottomed plates were incubated with 50 μM CGP37157 for 30 min initially and then with 100 μM 4'I-MPP^+ and 200 nM MitoTracker Green FM in KRB-HEPES for 1 h at 37 °C. After incubation cells were washed and reconstituted with KRB-HEPES, pH 7.4 and 4'I-MPP^+ and MitoTracker Green FM fluorescence images of cells were recorded as detailed above. Controls were treated under the same experimental conditions, except that CGP37157 was omitted from the initial incubation.
S4 Fig. Effects of Benzamil, Verapamil, FFA, and ruthenium red on the MN9D mitochondrial uptake of 4'I-MPP+. MN9D mitochondrial suspensions were initially incubated with a 50 μM concentration of the desired agent (10 μM Ruthenium red) in KCl buffer for 10 min at 37 °C and then incubated with 200 μM 4'I-MPP+ for 45 min at 37 °C. After the incubations, the […] 4'I-MPP+ contents were quantified by RP-HPLC-UV as described in Material and methods. The data are represented as mean ± S.D (n=3).
(also on this page, place not known: contol 10uM Ru red BenzamilVerapamil FFA 4I' MPP+ uptake (nmoles/mg) 0.0 0.1 0.2 0.3 0.4 0.5)
(1 picture or pasted object on this page, not shown here)

HepG2 cells [2] = test: Effect of CGP37157 and KBR7943 on 4'I-MPP+-mediated mitochondrial membrane depolarization (TMRM); assay type: cell-based, human
Description: HepG2 cells grown in glass-bottomed plates for two days were treated with 50 μM CGP37157 or KBR7943 in KRB-HEPES for 30 min followed by 50 nM TMRM in KRB-HEPES for 45 min. Then plates were mounted on the stage of the microscope and mitochondrial membrane depolarization upon the treatment with 100 μM 4'I-MPP^+ was measured as a function of time as detailed above. The effect of CGP37157 on the 4'I-MPP^+ mediated mitochondrial membrane depolarization at longer time periods was monitored by observing the reduction of TMRM fluorescence from 0 to 4 h incubations in the presence or absence of CGP37157. HepG2 cells were incubated with or without 10 μM CGP37157 followed by 50 nM TMRM, and finally with 4'I-MPP^+ (100 μM, 0 or 4 h) and the intracellular TMRM fluorescence was recorded. Controls were carried out using an identical protocol except that either CGP37157 or 4'I-MPP^+ were omitted from the incubation media.

MN9D cells [3] = test: Protection of MN9D cells from MPP+ and 4'I-MPP+ toxicities (MTT); assay type: cell-based, mouse; settings: 0–50 μM CGP37157 30 min, then 80 μM MPP+ or 25 μM 4'I-MPP+ for 8 h
Description: Cell viability was determined by the MTT [3-(4,5-dimethylthiazol-2-yl)-2,5-diphenyltetrazolium bromide)] assay. Briefly, cells were seeded on 96-well plates and allowed to grow to about 70–80% confluence. Prior to the experiment, culture media was replaced with KRB-HCO3^- containing desired concentrations of MPP^+ or 4'I-MPP^+ and incubated for 16 h at 37 °C. After the incubation, 10 μL of 5 mg/mL MTT solution was added to each well and incubated for 2 h at 37 °C. The resulting formazan was solubilized by the addition of 210 μL detergent solution [50% DMF/H2O (v/v), 20% SDS (w/v)] followed by incubation at 37 °C for 12 h. The cell viabilities were determined by quantifying solubilized formazan by measuring the difference in the absorbance at 570 nm and 650 nm. Results were expressed as % viability of MPP^+ or 4'I-MPP^+ treated cells with respect to control cells, which were treated under the same conditions except in the absence of the MPP^+ or 4'I-MPP^+.
Fig 7 CGP37157 protect MN9D cells from MPP^+ and 4'I-MPP^+ toxicities. Cells were pre-incubated with 0–50 μM CGP37157 for 30 min followed by 80 μM MPP^+ or 25 μM 4'I-MPP^+ for 8 h. The relative cell viabilities were determiner using MTT assay, as detailed above. Data are presented as mean ± SD (n = 6). ٭p<0.0001 and #p<0.005 versus no CGP37157 controls.

HepG2 cells [4] = settings: 5 μM FCCP 30 min, then 50 μM toxin 45 min; in comparison to MN9D cells
Description: (§1) Cells grown in 12-well plates were washed and incubated with 5 μM FCCP in KRB-HEPES for 30 min followed by 50 μM MPP^+ or 4'I-MPP^+ in the same buffer for 45 min at 37 °C. After the incubations, cells were washed with ice-cold KRB-HEPES and treated with 0.1 M HClO4. The intracellular MPP^+ or 4'I-MPP^+ contents of HClO4 extracts were quantified by HPLC-UV as detailed above. The controls were treated under the same conditions except that FCCP was omitted from the initial incubation. All uptake data were normalized to the respective protein concentration of each sample. To visualize the effect of FCCP on the mitochondrial accumulation of 4'I-MPP^+, cells were grown in glass bottomed plates and incubated with 5 μM FCCP in KRB-HEPES for 30 min followed by 100 μM 4'I-MPP^+ for 1 h at 37 °C. Then cells were washed and reconstituted with 1 mL of KRB-HEPES and the intracellular 4'I-MPP^+ fluorescence (Ex/Em 340/470-550 nm) were recorded.

MN9D cells [5] = settings: 5 μM FCCP 30 min, then 50 μM toxin 45 min
Description: as §1

Row | SMILES | 4'I-MPP+ uptake inhibition ([1]; 10 μM inhibitor) | 4'I-MPP+ uptake inhibition ([1]; 25 μM inhibitor) | effect on uptake of 4'I-MPP+ ([1]; 50 μM inhibitor at 200 μM 4'I-MPP+) | effect on 4'I-MPP+-induced mitochondrial membrane depolarization, longer incubation (HepG2 cells [2]; 10 μM CGP37157, 100 μM 4'I-MPP+, lasting at least 4 h) | effect on 4'I-MPP+ mitochondrial membrane depolarization (HepG2 cells [2]; 50 μM pre-treatment 30 min, 100 μM 4'I-MPP+) | protection from MPP+ and 4'I-MPP+ toxicities (MN9D cells [3]) | effect on cellular accumulation of MPP+ and 4'I-MPP+ (HepG2 cells [4]) | effect on cellular accumulation of MPP+ and 4'I-MPP+ (MN9D cells [5])
1 | O=C1CSC(c2ccccc2Cl)c2cc(Cl)ccc2N1 (centres unmarked) [CGP37157] | about 40% | ~ 45% | inhibit the uptake | slows down | significantly reduced | effectively protects | – | –
2 | N#CC(C#N)=NNc1ccc(OC(F)(F)F)cc1 [FCCP, carbonyl cyanide-p-trifluoromethoxyphenylhydrazone] | – | – | – | – | – | – | stronger effect | significantly decreased
